Source: PubChem BioAssay (NCI)
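96-well plates; 48 h exposure; 5 concentrations. Endpoints by linear interpolation between flanking doses. Not reached: highest tested concentration assigned. Definition used: TGI = concentration required for complete inhibition of growth.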

Key:
Experiment in all cases: NCI-60 cell line screen, 48 h
NCI-H522 lung = test system: NCI-H522 lung
HCT-116 colon = test system: HCT-116 colon
SNB-19 CNS = test system: SNB-19 CNS
SK-OV-3 ovarian = test system: SK-OV-3 ovarian
U251 CNS = test system: U251 CNS
SK-MEL-2 melanoma = test system: SK-MEL-2 melanoma
UACC-257 melanoma = test system: UACC-257 melanoma
SF-295 CNS = test system: SF-295 CNS
SF-268 CNS = test system: SF-268 CNS
HOP-92 NSCLC = test system: HOP-92 NSCLC
OVCAR-8 ovarian = test system: OVCAR-8 ovarian
SN12C renal = test system: SN12C renal
MDA-MB-435 = test system: MDA-MB-435
SK-MEL-5 melanoma = test system: SK-MEL-5 melanoma
IGROV1 ovarian = test system: IGROV1 ovarian
HCC-2998 colon = test system: HCC-2998 colon
HCT-15 colon = test system: HCT-15 colon
MDA-MB-231 breast = test system: MDA-MB-231 breast
TK-10 renal = test system: TK-10 renal
NCI/ADR-RES ovarian = test system: NCI/ADR-RES ovarian
SF-539 CNS = test system: SF-539 CNS
ACHN renal = test system: ACHN renal
NCI-H226 lung = test system: NCI-H226 lung
MOLT-4 leukemia = test system: MOLT-4 leukemia
HOP-62 NSCLC = test system: HOP-62 NSCLC
HT29 colon = test system: HT29 colon
T-47D breast = test system: T-47D breast
A549 NSCLC = test system: A549 NSCLC
COLO 205 colon = test system: COLO 205 colon
HL-60(TB) leukemia = test system: HL-60(TB) leukemia
OVCAR-5 ovarian = test system: OVCAR-5 ovarian
OVCAR-3 ovarian = test system: OVCAR-3 ovarian
MDA-N = test system: MDA-N
PC-3 prostate = test system: PC-3 prostate
M14 melanoma = test system: M14 melanoma
BT-549 breast = test system: BT-549 breast
RPMI-8226 leukemia = test system: RPMI-8226 leukemia
786-0 renal = test system: 786-0 renal
A498 renal = test system: A498 renal
OVCAR-4 ovarian = test system: OVCAR-4 ovarian
CAKI-1 renal = test system: CAKI-1 renal
NCI-H460 lung = test system: NCI-H460 lung
MCF7 breast = test system: MCF7 breast
UO-31 renal = test system: UO-31 renal
LOX IMVI melanoma = test system: LOX IMVI melanoma
CCRF-CEM leukemia = test system: CCRF-CEM leukemia
K-562 leukemia = test system: K-562 leukemia
RXF 393 renal = test system: RXF 393 renal
UACC-62 melanoma = test system: UACC-62 melanoma
EKVX NSCLC = test system: EKVX NSCLC
HS 578T breast = test system: HS 578T breast
SW-620 colon = test system: SW-620 colon
SR leukemia = test system: SR leukemia
NCI-H23 lung = test system: NCI-H23 lung
KM12 colon = test system: KM12 colon
SK-MEL-28 melanoma = test system: SK-MEL-28 melanoma
DU-145 prostate = test system: DU-145 prostate
SNB-75 CNS = test system: SNB-75 CNS
MALME-3M melanoma = test system: MALME-3M melanoma

## O=S(=O)(O)c1ccc(N=Nc2ccccc2)cc1
NCI-H522 lung
  TGI: > 100 µM
HCT-116 colon
  TGI: > 100 µM
SNB-19 CNS
  TGI: > 100 µM
SK-OV-3 ovarian
  TGI: > 100 µM
U251 CNS
  TGI: > 100 µM
SK-MEL-2 melanoma
  TGI: > 100 µM
UACC-257 melanoma
  TGI: > 100 µM
SF-295 CNS
  TGI: > 100 µM
SF-268 CNS
  TGI: > 100 µM
HOP-92 NSCLC
  TGI: > 100 µM
OVCAR-8 ovarian
  TGI: > 100 µM
SN12C renal
  TGI: > 100 µM
MDA-MB-435
  TGI: > 100 µM
SK-MEL-5 melanoma
  TGI: > 100 µM
IGROV1 ovarian
  TGI: > 100 µM
HCC-2998 colon
  TGI: > 100 µM
HCT-15 colon
  TGI: > 100 µM
MDA-MB-231 breast
  TGI: > 100 µM
TK-10 renal
  TGI: > 100 µM
NCI/ADR-RES ovarian
  TGI: > 100 µM
SF-539 CNS
  TGI: > 100 µM
ACHN renal
  TGI: > 100 µM
NCI-H226 lung
  TGI: > 100 µM
MOLT-4 leukemia
  TGI: > 100 µM
HOP-62 NSCLC
  TGI: > 100 µM
HT29 colon
  TGI: > 100 µM
T-47D breast
  TGI: > 100 µM
A549 NSCLC
  TGI: > 100 µM
COLO 205 colon
  TGI: > 100 µM
HL-60(TB) leukemia
  TGI: > 100 µM
OVCAR-5 ovarian
  TGI: > 100 µM
OVCAR-3 ovarian
  TGI: > 100 µM
MDA-N
  TGI: > 100 µM
PC-3 prostate
  TGI: > 100 µM
M14 melanoma
  TGI: > 100 µM
BT-549 breast
  TGI: > 100 µM
RPMI-8226 leukemia
  TGI: > 100 µM
786-0 renal
  TGI: > 100 µM
A498 renal
  TGI: > 100 µM
OVCAR-4 ovarian
  TGI: > 100 µM
CAKI-1 renal
  TGI: > 100 µM
NCI-H460 lung
  TGI: > 100 µM
MCF7 breast
  TGI: > 100 µM
UO-31 renal
  TGI: > 100 µM
LOX IMVI melanoma
  TGI: > 100 µM
CCRF-CEM leukemia
  TGI: > 100 µM
K-562 leukemia
  TGI: > 100 µM
RXF 393 renal
  TGI: > 100 µM
UACC-62 melanoma
  TGI: > 100 µM
EKVX NSCLC
  TGI: > 100 µM
HS 578T breast
  TGI: > 100 µM
SW-620 colon
  TGI: > 100 µM
SR leukemia
  TGI: > 100 µM
NCI-H23 lung
  TGI: > 100 µM
KM12 colon
  TGI: > 100 µM
SK-MEL-28 melanoma
  TGI: > 100 µM
DU-145 prostate
  TGI: > 100 µM

## C=CCC1(C(=O)OC)CCC/C(=N\O)C1 (stereo not drawn)
NCI-H522 lung
  TGI: > 10 µM
HCT-116 colon
  TGI: > 10 µM
SNB-19 CNS
  TGI: > 10 µM
SK-OV-3 ovarian
  TGI: > 10 µM
U251 CNS
  TGI: > 10 µM
UACC-257 melanoma
  TGI: > 10 µM
SF-295 CNS
  TGI: > 10 µM
SF-268 CNS
  TGI: > 10 µM
HOP-92 NSCLC
  TGI: > 10 µM
OVCAR-8 ovarian
  TGI: > 10 µM
SN12C renal
  TGI: > 10 µM
MDA-MB-435
  TGI: > 10 µM
SK-MEL-5 melanoma
  TGI: > 10 µM
IGROV1 ovarian
  TGI: > 10 µM
HCC-2998 colon
  TGI: > 10 µM
HCT-15 colon
  TGI: > 10 µM
MDA-MB-231 breast
  TGI: > 10 µM
TK-10 renal
  TGI: > 10 µM
NCI/ADR-RES ovarian
  TGI: > 10 µM
SF-539 CNS
  TGI: > 10 µM
ACHN renal
  TGI: > 10 µM
MOLT-4 leukemia
  TGI: > 10 µM
HOP-62 NSCLC
  TGI: > 10 µM
HT29 colon
  TGI: > 10 µM
T-47D breast
  TGI: > 10 µM
A549 NSCLC
  TGI: > 10 µM
COLO 205 colon
  TGI: > 10 µM
HL-60(TB) leukemia
  TGI: > 10 µM
OVCAR-3 ovarian
  TGI: > 10 µM
MDA-N
  TGI: > 10 µM
PC-3 prostate
  TGI: > 10 µM
M14 melanoma
  TGI: > 10 µM
BT-549 breast
  TGI: > 10 µM
RPMI-8226 leukemia
  TGI: > 10 µM
786-0 renal
  TGI: > 10 µM
OVCAR-4 ovarian
  TGI: > 10 µM
CAKI-1 renal
  TGI: > 10 µM
SNB-75 CNS
  TGI: > 10 µM
MCF7 breast
  TGI: > 10 µM
LOX IMVI melanoma
  TGI: > 10 µM
CCRF-CEM leukemia
  TGI: > 10 µM
K-562 leukemia
  TGI: > 10 µM
UACC-62 melanoma
  TGI: > 10 µM
HS 578T breast
  TGI: > 10 µM
SW-620 colon
  TGI: > 10 µM
MALME-3M melanoma
  TGI: > 10 µM
SR leukemia
  TGI: > 10 µM
NCI-H23 lung
  TGI: > 10 µM
KM12 colon
  TGI: > 10 µM
SK-MEL-28 melanoma
  TGI: > 10 µM
DU-145 prostate
  TGI: > 10 µM
